Target: Gamma-secretase
Assay: Inhibition of gamma secretase expressed in SH-SY5Y cells
Format: cell-based, Homo sapiens

SMILES | IC50
C=CC[C@H]1CCC[C@](c2cc(F)ccc2F)(S(=O)(=O)c2ccc(Cl)cc2)C1 | 85 nM
O=S(=O)(c1ccc(Cl)cc1)[C@@]1(c2cc(F)ccc2F)CCC[C@@H](CCCO)C1 (relative stereo) | 8 nM
COC(=O)CCC[C@@]1(C)CCC[C@](c2cc(F)ccc2F)(S(=O)(=O)c2ccc(Cl)cc2)C1 (relative stereo) | 1630 nM
O=C[C@H]1CCC[C@](c2cc(F)ccc2F)(S(=O)(=O)c2ccc(Cl)cc2)C1 (relative stereo) | 55 nM
COC(=O)CCC[C@@H]1CCC[C@](c2cc(F)ccc2F)(S(=O)(=O)c2ccc(Cl)cc2)C1 (relative stereo) | 3 nM
COC(=O)/C=C/C[C@@H]1CCC[C@](c2cc(F)ccc2F)(S(=O)(=O)c2ccc(Cl)cc2)C1 (relative stereo) | 10 nM
COC(=O)CCC[C@]1(C)CCC[C@](c2cc(F)ccc2F)(S(=O)(=O)c2ccc(Cl)cc2)C1 (relative stereo) | 10 nM
O=C[C@@H]1CCC[C@](c2cc(F)ccc2F)(S(=O)(=O)c2ccc(Cl)cc2)C1 (relative stereo) | 77 nM
COC(=O)/C=C/C[C@H]1CCC[C@](c2cc(F)ccc2F)(S(=O)(=O)c2ccc(Cl)cc2)C1 (relative stereo) | 210 nM
O=S(=O)(c1ccc(Cl)cc1)[C@@]1(c2cc(F)ccc2F)CCC[C@H](CCCO)C1 (relative stereo) | 112 nM
C=CC[C@@H]1CCC[C@](c2cc(F)ccc2F)(S(=O)(=O)c2ccc(Cl)cc2)C1 (relative stereo) | 44 nM
O=C(O)CC[C@@H]1CCC[C@](c2cc(F)ccc2F)(S(=O)(=O)c2ccc(Cl)cc2)C1 (relative stereo) | 24 nM
COC(=O)CCC[C@H]1CCC[C@](c2cc(F)ccc2F)(S(=O)(=O)c2ccc(Cl)cc2)C1 (relative stereo) | 376 nM
O=C(O)CC[C@H]1CCC[C@](c2cc(F)ccc2F)(S(=O)(=O)c2ccc(Cl)cc2)C1 (relative stereo) | 380 nM
